A short description of series [1]: in vivo. Particulars: mouse, in vivo, iv, 3 mg/kg.
Experimental: Male mice are given single intravenous cassette doses of CDK inhibitor compounds.
Doses are adjusted for the weight of the individual dihydrochloride and trihydrochloride salts. The compounds are stored desiccated within a closed cabinet at room temperature before use. Dose levels are prepared on the morning of each study.
A single intravenous cassette dose (18 or 15 mg/kg free base) is administered. For each compound, this is equivalent to a dose of approx. 3 mg/kg free base. […] The dose is administered at a volume of 10 ml/kg (total volume of approximately 0.25 ml/animal).
Male mice (Hsd:ICR (CD-1® SD®), Harlan), each weighing approximately 20 - 30 g at the start of the study. […] Water is available ad libitum throughout the study.
Dose Administration and Sample Collection: • A single cassette dose of 5-6 compounds is administered by bolus injection into the tail vein over a 10 - 15-second period. […] Whole blood (approximately 0.6 ml/sample) is obtained by cardiac puncture and transferred to 3 ml glass tubes containing 45 U sodium heparin.
Sample Processing: Plasma: Whole blood is centrifuged at approximately 3,200 rpm for 10 min at approximately 5°C and the plasma (approx. 0.3 ml/sample) is transferred to chilled plastic vials and stored at approx. -70°C until bioanalysis.
Sample Analysis: Concentrations of each test article in plasma are quantitated by a non-validated method based on LC/MS using the following protocol.
Samples are removed from the freezer, allowed to thaw at room temperature, and vortexed to insure complete homogenization prior to sample manipulation. Samples are then prepared according to the following scheme: • 1. transfer 48 µL of plasma (blank mouse sample) into a 12 x 75 mm test tube. • 2. add 12 µL of working standard to the blank plasma for standard curve preparation. • 3. […] Inject 25 µL on LC/MS.
Data Analysis: Concentrations of Compounds in plasma of individual animals are determined by bioanalytics. […] Statistical analyses are limited to simple expressions of variation (mean and standard deviation). The plasma AUC (area-under-curve) is determined by the linear trapezoidal rule. […] All PK parameters are determined by noncompartmental methods using WinNonlin version 3.0 (Pharsight Corp). Plasma vs. time profiles are prepared by Sigma Plot (SPSS, Inc.).
The target of series [2] is cdk4/cyclin D1 (Homo sapiens, UniProt P11802). Nature of the series: Cyclin-dependent kinase assay, cdk4/cyclin D1. Format: biochemical.
The test system of series [3] is MDA-MB-435. The experiment in a line: In vitro proliferation assay (MTT), MDA-MB-435. The series is classed as cell-based, human. The conditions noted are these: value (SD, n) where given, read-out: MB-435 Breast (IC50 µM). An outline of the steps:
(§1)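 Step one: plate 1000 to 2500 cells per well and let them recover overnight. Step two: treat with compound for 3 days. Step three: add MTT, dissolve dye in DMSO, read absorbance at 570 nm and determine IC50.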

Series [4] relates to PC-3. Nature of the series: In vitro proliferation assay (MTT), PC-3. Particulars: value (SD, n) where given, read-out: PC-3 Prostate (IC50 µM). Format: cell-based, human. The procedure, abridged: as §1
The target of series [5] is cdk1/cyclin B (Homo sapiens, UniProt P06493). Nature of the series: Cyclin-dependent kinase assay, cdk1/cyclin B.
Chain of cdk1/cyclin B (P06493 whole entry): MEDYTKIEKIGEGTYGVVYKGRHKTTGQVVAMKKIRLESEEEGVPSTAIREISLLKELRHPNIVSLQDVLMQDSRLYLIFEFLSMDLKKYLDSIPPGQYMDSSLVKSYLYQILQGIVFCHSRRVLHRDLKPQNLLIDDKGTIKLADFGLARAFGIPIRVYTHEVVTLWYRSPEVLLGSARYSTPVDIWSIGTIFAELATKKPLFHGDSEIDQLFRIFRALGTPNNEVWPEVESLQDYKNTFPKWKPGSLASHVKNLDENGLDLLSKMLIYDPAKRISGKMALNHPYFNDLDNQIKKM
Chain of cdk1/cyclin B (P14635 whole entry partner): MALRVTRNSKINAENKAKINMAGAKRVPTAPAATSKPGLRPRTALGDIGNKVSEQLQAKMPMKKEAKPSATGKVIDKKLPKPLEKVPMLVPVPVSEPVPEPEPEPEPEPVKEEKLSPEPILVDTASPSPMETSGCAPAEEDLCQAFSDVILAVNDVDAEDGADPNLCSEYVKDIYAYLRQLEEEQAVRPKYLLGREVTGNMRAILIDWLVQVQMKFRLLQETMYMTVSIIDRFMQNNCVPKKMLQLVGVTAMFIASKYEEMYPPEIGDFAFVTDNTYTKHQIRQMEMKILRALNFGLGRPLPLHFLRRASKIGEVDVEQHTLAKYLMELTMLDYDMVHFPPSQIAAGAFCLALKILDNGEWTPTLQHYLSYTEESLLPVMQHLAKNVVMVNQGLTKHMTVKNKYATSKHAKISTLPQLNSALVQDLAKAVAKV
The target of series [6] is cdk2/cyclin E (Homo sapiens, UniProt P24941). The experiment in a line: Cyclin-dependent kinase assay, cdk2/cyclin E.
[7] abbreviates: cyclin D1/cdk4, GST-pRb substrate, 10 µM ATP.
The mark [8] stands for this setting: Homo sapiens, MDA-MB-435, MTT assay.
[9] abbreviates: CDK1 IC50, nM, Histone H1, 10 µM ATP.
The mark [10] stands for this setting: CDK2 IC50, nM, GST-pRb substrate, 10 µM ATP.

Structures can show the parent of a compound that is named as a salt. Where two headings read alike, the source gives them in different places.

Chain of cdk4/cyclin D1 (P11802 whole entry): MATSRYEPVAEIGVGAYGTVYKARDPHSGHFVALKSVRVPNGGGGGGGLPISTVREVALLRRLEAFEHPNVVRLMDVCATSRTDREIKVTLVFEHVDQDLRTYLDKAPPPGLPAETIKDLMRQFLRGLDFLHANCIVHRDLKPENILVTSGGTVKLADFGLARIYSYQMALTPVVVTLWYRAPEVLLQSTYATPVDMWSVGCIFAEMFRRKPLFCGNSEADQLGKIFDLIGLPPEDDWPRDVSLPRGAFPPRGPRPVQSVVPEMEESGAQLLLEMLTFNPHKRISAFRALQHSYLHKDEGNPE
Chain of cdk4/cyclin D1 (P24385 whole entry partner): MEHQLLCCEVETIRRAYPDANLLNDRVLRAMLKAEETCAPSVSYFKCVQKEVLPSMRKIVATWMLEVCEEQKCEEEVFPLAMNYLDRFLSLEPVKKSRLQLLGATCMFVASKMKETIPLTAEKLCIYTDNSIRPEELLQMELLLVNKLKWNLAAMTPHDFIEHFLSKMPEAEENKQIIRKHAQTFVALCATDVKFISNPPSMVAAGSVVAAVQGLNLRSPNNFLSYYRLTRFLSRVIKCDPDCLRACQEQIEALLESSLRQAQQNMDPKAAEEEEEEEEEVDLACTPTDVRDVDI

As a reminder, the AUC(0-inf) is total exposure, with the tail of the curve extrapolated. A low value points to low exposure. Broadly, the Cmax is the maximum level reached in the sampled fluid or tissue. Usually half-life stands for how long it takes for the measured level to halve. In series [1], `NC1CCC(Nc2nc(NCCCc3ccccc3)c3ncn(C4CCCC4)c3n2)CC1` (stereo not drawn) [MDL 107167] had an AUC(0-inf) of 531 ng·h/mL, a Cmax of 512 ng/mL and a half-life of 1.7 h.
As a reminder, the IC50 is the point on the concentration scale where inhibition reaches its midpoint. For the compound `CC(=O)c1ccc(NC(=O)N2CCC(Nc3nc(N[C@H]4CC[C@H](N)CC4)nc4c3ncn4C3CCCC3)CC2)cc1` [compound 188, trans-4-[2-(4-Amino-cyclohexylamino)-9-cyclopentyl-9H-purin-6-ylamino]-piperidine-1-carboxylic acid (4-acetyl-phenyl)-amide dihydrochloride], the IC50 in series [2] (setting [7]) stood at 170 nM; in series [3] (setting [8]) it was 0.48 µM; in series [4] (Homo sapiens, PC-3, MTT assay), 0.5 µM; in series [5] (setting [9]), 14 nM; in series [6] (setting [10]) it was 31 nM.
As for `CC(=O)c1cccc(NC(=O)N2CCC(Nc3nc(N[C@H]4CC[C@H](N)CC4)nc4c3ncn4C3CCCC3)CC2)c1` [compound 189, trans-4-[2-(4-Amino-cyclohexylamino)-9-cyclopentyl-9H-purin-6-ylamino]-piperidine-1-carboxylic acid (3-acetyl-phenyl)-amide dihydrochloride], the IC50 was 66 nM in series [2] (setting [7]); 1 µM in series [3] (setting [8]); 1.37 µM in series [4] (Homo sapiens, PC-3, MTT assay); 20 nM in series [5] (setting [9]); 28 nM in series [6] (setting [10]).
The like results for `CC(C)(C)NC(=O)N1CCC(Nc2nc(N[C@H]3CC[C@H](N)CC3)nc3c2ncn3C2CCCC2)CC1` [compound 192, trans-4-[2-(4-Amino-cyclohexylamino)-9-cyclopentyl-9H-purin-6-ylamino]-piperidine-1-carboxylic acid tert-butyl-amide dihydrochloride] were, in that order, 400 nM, 1.49 µM, 1.89 µM, 1000 nM and 237 nM.
As to `N#Cc1cccc(NC(=O)N2CCC(Nc3nc(N[C@H]4CC[C@H](N)CC4)nc4c3ncn4C3CCCC3)CC2)c1` [compound 194, trans-4-[2-(4-Amino-cyclohexylamino)-9-cyclopentyl-9H-purin-6-ylamino]-piperidine-1-carboxylic acid (3-cyano-phenyl)-amide dihydrochloride], the IC50 in series [2] (setting [7]) came to 88 nM; in series [3] (setting [8]), 0.72 µM; in series [4] (Homo sapiens, PC-3, MTT assay) it was 0.89 µM; in series [5] (setting [9]), 40 nM; in series [6] (setting [10]) it was 15 nM.
The matching figures for `CCOC(=O)c1cccc(NC(=O)N2CCC(Nc3nc(N[C@H]4CC[C@H](N)CC4)nc4c3ncn4C3CCCC3)CC2)c1` [compound 195, trans-3-[(1-{4-[2-(4-Amino-cyclohexylamino)-9-cyclopentyl-9H-purin-6-ylamino]-piperidin-1-yl} -methanoyl)-amino]-benzoic acid ethyl ester dihydrochloride]: 6 nM, 0.33 µM, 0.38 µM, 50 nM and 28 nM.
For the compound `Cc1cccc(Cl)c1NC(=O)N1CCC(Nc2nc(N[C@H]3CC[C@H](N)CC3)nc3c2ncn3C2CCCC2)CC1` [compound 196, trans-4-[2-(4-Amino-cyclohexylamino)-9-cyclopentyl-9H-purin-6-ylamino]-piperidine-1-carboxylic acid (2-chloro-6-methyl-phenyl)-amide dihydrochloride], the IC50 in series [2] (setting [7]) was determined as 6 nM; in series [3] (setting [8]), 0.5 µM; in series [4] (Homo sapiens, PC-3, MTT assay), 0.59 µM; in series [5] (setting [9]), 350 nM; in series [6] (setting [10]) it was 2 nM.
In the case of `N[C@H]1CC[C@H](Nc2nc(NC3CCN(C(=O)NCCc4ccccc4)CC3)c3ncn(C4CCCC4)c3n2)CC1` [compound 197, trans-4-[2-(4-Amino-cyclohexylamino)-9-cyclopentyl-9H-purin-6-ylamino]-piperidine-1-carboxylic acid phenethyl-amide dihydrochloride], the IC50 in series [2] (setting [7]) came out at 381 nM; in series [3] (setting [8]), 0.91 µM; in series [4] (Homo sapiens, PC-3, MTT assay) it was 1.09 µM; in series [5] (setting [9]), 200 nM; in series [6] (setting [10]), 8 nM.
The like results for `COc1cc(NC(=O)N2CCC(Nc3nc(N[C@H]4CC[C@H](N)CC4)nc4c3ncn4C3CCCC3)CC2)cc(OC)c1OC` [compound 198, trans-4-[2-(4-Amino-cyclohexylamino)-9-cyclopentyl-9H-purin-6-ylamino]-piperidine-1-carboxylic acid (3,4,5-trimethoxy-phenyl)-amide dihydrochloride] were, in that order, 7 nM, 2.85 µM, 31.8 µM, 40 nM and 20 nM.
As for `N[C@H]1CC[C@H](Nc2nc(NC3CCN(C(=O)Nc4c(F)cccc4C(F)(F)F)CC3)c3ncn(C4CCCC4)c3n2)CC1` [compound 201, trans-4-[2-(4-Amino-cyclohexylamino)-9-cyclopentyl-9H-purin-6-ylamino]-piperidine-1-carboxylic acid (2-fluoro-6-trifluoromethyl-phenyl)-amide dihydrochloride], the IC50 in series [2] (setting [7]) was 986 nM; in series [3] (setting [8]), 1.53 µM; in series [4] (Homo sapiens, PC-3, MTT assay), 1.9 µM; in series [5] (setting [9]), 170 nM; in series [6] (setting [10]), 41 nM.
With `CCCCNC(=O)N1CCC(Nc2nc(N[C@H]3CC[C@H](N)CC3)nc3c2ncn3C2CCCC2)CC1` [compound 204, trans-4-[2-(4-Amino-cyclohexylamino)-9-cyclopentyl-9H-purin-6-ylamino]-piperidine-1-carboxylic acid butylamide dihydrochloride], the IC50 in series [2] (setting [7]) was 39 nM; in series [3] (setting [8]), 2.53 µM; in series [4] (Homo sapiens, PC-3, MTT assay) it was 2.64 µM; in series [5] (setting [9]) it was 200 nM; in series [6] (setting [10]) it was 51 nM.
As to `N[C@H]1CC[C@H](Nc2nc(NC3CCN(C(=O)NC4CCCCC4)CC3)c3ncn(C4CCCC4)c3n2)CC1` [compound 205, trans-4-[2-(4-Amino-cyclohexylamino)-9-cyclopentyl-9H-purin-6-ylamino]-piperidine-1-carboxylic acid cyclohexylamide dihydrochloride], the 50% inhibitory concentration (IC50) in series [2] (setting [7]) was 3250 nM; in series [3] (setting [8]) it was 1.84 µM; in series [4] (Homo sapiens, PC-3, MTT assay) it was 1.63 µM; in series [5] (setting [9]), 290 nM; in series [6] (setting [10]) it was 232 nM.
Consider `CCCNC(=O)N1CCC(Nc2nc(N[C@H]3CC[C@H](N)CC3)nc3c2ncn3C2CCCC2)CC1` [compound 206, trans-4-[2-(4-Amino-cyclohexylamino)-9-cyclopentyl-9H-purin-6-ylamino]-piperidine-1-carboxylic acid propylamide dihydrochloride], for which the IC50 is 85 nM in series [2] (setting [7]); 2.68 µM in series [3] (setting [8]); 2.89 µM in series [4] (Homo sapiens, PC-3, MTT assay); 210 nM in series [5] (setting [9]); 7 nM in series [6] (setting [10]).
With `Cc1ccccc1NC(=O)N1CCC(Nc2nc(N[C@H]3CC[C@H](N)CC3)nc3c2ncn3C2CCCC2)CC1` [compound 208, trans-4-[2-(4-Amino-cyclohexylamino)-9-cyclopentyl-9H-purin-6-ylamino]-piperidine-1-carboxylic acid (2-methyl-phenyl)-amide dihydrochloride], the IC50 in series [2] (setting [7]) is 73 nM; in series [3] (setting [8]) it was 0.47 µM; in series [4] (Homo sapiens, PC-3, MTT assay), 0.68 µM; in series [5] (setting [9]) it was 180 nM; in series [6] (setting [10]), 8 nM.
Turning to `CC(C)n1cnc2c(NC3CCN(C(=O)Nc4ccc(OC(F)(F)F)cc4)CC3)nc(N[C@H]3CC[C@H](N)CC3)nc21` [compound 211, trans-4-[2-(4-Amino-cyclohexylamino)-9-isopropyl-9H-purin-6-ylamino]-piperidine-1-carboxylic acid (4-trifluoromethoxy-phenyl)-amide dihydrochloride], the IC50 was determined as 7000 nM in series [2] (setting [7]); 0.69 µM in series [3] (setting [8]); 0.56 µM in series [4] (Homo sapiens, PC-3, MTT assay); 197 nM in series [5] (setting [9]); 612 nM in series [6] (setting [10]).
Take “trans 1-{4-[2-(4-Amino-cyclohexylamino)-9-cyclopentyl-9H-purin-6-ylamino]-piperidin-1-yl}-3-(2,5-dimethoxy-phenyl)-propan-1-one dihydrochloride [compound 34]”: the IC50 was found to be 997 nM in series [2]; 0.69 µM in series [3] (MTT assay); 0.67 µM in series [4] (MTT assay); 31 nM in series [5] (read-out: CDK1 IC50, Histone H1, 10 µM ATP); 58 nM in series [6] (read-out: CDK2 IC50, GST-pRb substrate, 10 µM ATP).

The values are drawn from patent EP1377579B1 (Aventis Pharmaceuticals Inc., priority 2000, dated 2002).
